pIC50: −log10 of the molar value.
Tests used:
[1] = target: T1, electric eel AChE (Electrophorus electricus, UniProt O42275); assay: biochemical; conditions: in vitro, electric eel enzyme; read-out: AChE inhibition IC50
T1 construct: purchased Sigma-Aldrich (Saint Louis, MO, USA)
Method: The AChE inhibitory properties of the compounds were determined using a 96-well microplate colorimetric method as described by Ellman et al.. Donepezil was used as a positive control.

[2] = target: T2, COX-2 (Mus musculus, UniProt Q05769); assay: Cell-based assay for COX-2 inhibition (PGE2 ELISA); conditions: LPS-induced RAW 264.7 cells, conversion of arachidonic acid to PGE2
T2 construct: treated with 500 ng/mL LPS for the next 24 h to induce the production of COX-2; endogenous in cells; host or cells: RAW 264.7 cells, LPS-induced
T2 sequence (Q05769 18-604): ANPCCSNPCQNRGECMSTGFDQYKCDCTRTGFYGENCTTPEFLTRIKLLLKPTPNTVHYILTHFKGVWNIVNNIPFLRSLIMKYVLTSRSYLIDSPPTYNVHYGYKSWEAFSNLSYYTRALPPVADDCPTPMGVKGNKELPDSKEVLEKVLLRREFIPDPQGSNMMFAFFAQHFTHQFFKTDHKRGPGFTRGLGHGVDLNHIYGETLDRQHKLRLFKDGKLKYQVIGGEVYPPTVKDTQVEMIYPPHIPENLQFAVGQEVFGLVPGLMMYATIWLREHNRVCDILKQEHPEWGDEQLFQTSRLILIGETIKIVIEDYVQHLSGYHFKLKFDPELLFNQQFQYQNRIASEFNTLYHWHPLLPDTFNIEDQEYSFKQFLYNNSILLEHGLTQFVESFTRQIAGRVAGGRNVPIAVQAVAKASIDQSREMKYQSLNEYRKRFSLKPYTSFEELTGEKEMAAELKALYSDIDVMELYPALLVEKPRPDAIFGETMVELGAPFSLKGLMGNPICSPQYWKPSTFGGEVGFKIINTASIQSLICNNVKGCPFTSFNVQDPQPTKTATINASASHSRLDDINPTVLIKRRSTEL
Method: This assay was carried out according to the method described by Stanikunaite et al. with some modifications. In brief, RAW 264.7 cells (2 × 10^5 cells/well) were cultured in a 24-well plate in DMEM supplemented with 10% FBS and incubated at 37 °C for 24 h for seeding. After seeding, cells were washed with PBS (400 µL) and treated with 500 ng/mL LPS for the next 24 h to induce the production of COX-2. Then, the induced cells were washed thoroughly with PBS to remove LPS completely and treated with different concentrations of test compounds for 4 h. Arachidonic acid (300 µM) was added and the cells were further incubated for 30 min. Next, the PGE2 levels were determined in the culture supernatant using a PGE2 ELISA kit (Cayman Chemical Co., Ann Arbor, MI, USA) according to the manufacturer’s instructions. COX-2 enzyme activity was determined by the conversion of exogenous arachidonic acid to PGE2, and was expressed as the percentage of negative control (without test compounds). Finally, IC50 values were calculated for all the tested compounds. Indomethacin was used as a positive control.

[3] = target: T3, egg albumin (Gallus gallus, UniProt P01012); assay: Albumin denaturation inhibition assay; parameters: species or system chicken; conditions: for pIC50: egg albumin, heated at 70 °C, in vitro
T3 sequence (P01012 1-386): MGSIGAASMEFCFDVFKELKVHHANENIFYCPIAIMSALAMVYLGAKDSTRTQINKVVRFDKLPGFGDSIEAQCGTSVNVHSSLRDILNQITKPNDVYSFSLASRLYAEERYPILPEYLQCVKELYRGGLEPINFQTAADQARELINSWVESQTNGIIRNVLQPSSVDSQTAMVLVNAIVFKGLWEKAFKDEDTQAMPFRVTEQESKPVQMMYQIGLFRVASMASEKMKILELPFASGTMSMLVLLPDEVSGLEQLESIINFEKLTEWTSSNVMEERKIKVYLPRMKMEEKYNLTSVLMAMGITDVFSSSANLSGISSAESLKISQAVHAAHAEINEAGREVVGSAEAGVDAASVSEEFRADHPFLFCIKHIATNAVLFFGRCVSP
Method: Albumin denaturation inhibition effects of the compounds were confirmed through a previously described method. Egg albumin was used in this experiment, and the reaction mixture contained 0.1 mL of egg albumin, 0.7 mL of phosphate-buffered saline (PBS), and varying concentrations of different compounds (0.5 mL). Mili-Q water (0.5 mL) instead of the compounds was used in the negative control. The reaction mixtures were incubated at 37 °C for 15 min and heated at 70 °C for 5 min. The absorbance was measured at 660 nm after cooling at room temperature. Ketorolac was used as a standard drug. Percentage of albumin denaturation inhibition was calculated according to the following formula:Percentage of inhibition = (1 − (A/B)) × 100, where A is the absorbance of the test sample, and B is the absorbance of the negative control.

[4] = target: T4, yeast α-glucosidase (Saccharomyces cerevisiae, UniProt P53341); assay: α-Glucosidase inhibition assay; type: biochemical
T4 construct: purchased Sigma-Aldrich (Saint Louis, MO, USA)
Method: The α-glucosidase assay was performed with slight modifications of a previous method. In short, 15 µL of the test sample at various concentrations was added to 140 µL of enzyme solution (0.0073 U/mL of α-glucosidase in 0.05 M sodium phosphate buffer containing 100 mM NaCl) in a 96-well plate. Reaction mixtures were incubated at 37 °C for 15 min. Then, 25 µL of 0.7 mM p-nitrophenyl-α-D-glucopyranoside (PNPG) solution in 0.05 M sodium phosphate buffer (pH 6.8) was added to each well.

[5] = test system: LPS-stimulated RAW 264.7 cells; assay: Nitrite inhibition assay in LPS-stimulated cells; type: cell-based; conditions: Mus musculus; for pIC50: RAW264.7, 24 h, read-out: Nitrite Inhibition (IC50 Value)
Method: As an indicator of NO synthesis, nitrite amount was measured in the supernatant of LPS-stimulated RAW 264.7 cells. Cells were plated on a 24-well plate with a density of 2 × 10^5 cells/well. After seeding, cells were treated with LPS (500 ng/mL final concentration) and varying concentrations of the test compounds for 24 h. Ketorolac (200 μM) was used as a standard drug. Then, 100 μL of culture supernatant from each well was mixed with an equal volume of Griess reagent, and incubated at room temperature for 10 min. The formation of an azo compound was measured spectrophotometrically at 550 nm wavelength. Finally, nitrite concentration was determined from a standard curve of sodium nitrite, and nitrite inhibition percentages of test compounds and the reference drug were calculated based on the amount of nitrite produced by the control cells (treated only with LPS).

[6] = test system: RAW 264.7 cells; assay: cells; type: cell-based; conditions: Mus musculus, RAW264.7, 24 h, read-out: Inhibition of cell proliferation, deviation from the control group
Method: RAW 264.7 cell viability was evaluated through the MTT assay. Cells were seeded in a 24-well plate at a density of 2 × 10^5 cells/well and incubated with the OP compounds for 24 h. Ketroloac (200 μM) was also assessed to determine its cytotoxicity on RAW 264.7 cells. After incubation, the supernatant was removed, and the cells were washed with PBS. Aliquots of 100 μL of MTT solution (0.5 mg/mL in PBS) were added to each well, and the plate was incubated at 37 °C for 3 h. Afterwards, dimethyl sulfoxide (400 μL) was added to each well, and the plate was shaken for 10 min at room temperature to dissolve the formazan crystals. The absorbance was measured at 570 nm wavelength using a microplate reader, and the cell viability was calculated from the absorbance of the treated versus untreated control cells.

T1 sequence (O42275 24-633): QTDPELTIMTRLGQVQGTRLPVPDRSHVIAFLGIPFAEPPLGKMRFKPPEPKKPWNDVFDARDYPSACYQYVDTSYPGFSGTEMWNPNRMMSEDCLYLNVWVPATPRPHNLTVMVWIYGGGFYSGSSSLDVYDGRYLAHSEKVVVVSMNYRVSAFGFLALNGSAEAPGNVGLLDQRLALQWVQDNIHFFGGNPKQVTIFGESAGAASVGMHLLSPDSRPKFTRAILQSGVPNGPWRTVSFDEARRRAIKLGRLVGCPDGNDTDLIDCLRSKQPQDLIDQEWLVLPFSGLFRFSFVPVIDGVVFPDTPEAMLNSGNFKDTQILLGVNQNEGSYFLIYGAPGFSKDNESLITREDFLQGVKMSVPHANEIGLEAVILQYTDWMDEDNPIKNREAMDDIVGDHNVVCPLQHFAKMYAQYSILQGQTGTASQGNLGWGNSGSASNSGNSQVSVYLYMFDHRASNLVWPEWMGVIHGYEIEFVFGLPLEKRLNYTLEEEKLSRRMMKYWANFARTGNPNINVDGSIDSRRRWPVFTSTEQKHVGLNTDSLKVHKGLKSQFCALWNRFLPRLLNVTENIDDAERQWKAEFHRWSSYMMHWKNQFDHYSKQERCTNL
T4 sequence (P53341 whole entry): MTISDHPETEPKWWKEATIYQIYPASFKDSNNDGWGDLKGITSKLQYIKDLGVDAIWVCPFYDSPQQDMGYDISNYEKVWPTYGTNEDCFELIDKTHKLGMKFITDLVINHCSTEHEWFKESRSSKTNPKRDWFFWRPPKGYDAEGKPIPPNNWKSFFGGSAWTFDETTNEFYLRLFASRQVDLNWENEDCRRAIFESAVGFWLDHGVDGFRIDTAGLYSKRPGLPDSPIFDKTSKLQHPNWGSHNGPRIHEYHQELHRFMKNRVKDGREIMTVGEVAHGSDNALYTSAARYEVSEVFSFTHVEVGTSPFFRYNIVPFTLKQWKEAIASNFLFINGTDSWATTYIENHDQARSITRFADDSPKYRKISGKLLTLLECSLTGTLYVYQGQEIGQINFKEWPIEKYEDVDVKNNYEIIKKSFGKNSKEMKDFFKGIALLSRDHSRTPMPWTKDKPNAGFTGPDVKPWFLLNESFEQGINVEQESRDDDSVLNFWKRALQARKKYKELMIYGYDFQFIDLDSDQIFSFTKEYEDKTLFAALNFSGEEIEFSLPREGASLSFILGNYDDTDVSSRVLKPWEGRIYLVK

SMILES	pIC50 [1]	pIC50 [2]	pIC50 [3]	pIC50 [4]	pIC50 [5]	inhibition at 12 µM [6]	inhibition at 200 µM ([3]; at 200 µM)	inhibition at 200 µM ([5]; RAW264.7, 200 μM, compared to cells treated only with LPS, read-out: Inhibition of nitrite formation in the supernatant)
CC(C)=CCC/C(C)=C/Cc1cc([C@@H]2CC(=O)c3c(O)cc(O)cc3O2)ccc1O [GN, 3′-geranyl-naringenin]	4.91	4.62	5.99	5.27	5.15			
CC(C)=CCC/C(C)=C/Cc1cc(C2CC(=O)c3c(O)cc(O)cc3O2)cc(O)c1O (centres unmarked) [INB, isonymphaeol-B]	5.14	4.62	6.38	5.29	5.21	3 to 5%		
CC(C)=CCC/C(C)=C/Cc1c(O)cc2c(c1O)C(=O)C[C@@H](c1ccc(O)c(O)c1)O2 [NA, nymphaeol-A]	5.11	4.93	6.59	5.42	5.49			
CC(C)=CCC/C(C)=C/Cc1c([C@@H]2CC(=O)c3c(O)cc(O)cc3O2)ccc(O)c1O [NB, nymphaeol-B]	4.82	4.75	6.27	5.25	5.27	3 to 5%		
CC(C)=CCC/C(C)=C/Cc1c([C@@H]2CC(=O)c3c(cc(O)c(CC=C(C)C)c3O)O2)ccc(O)c1O [NC, nymphaeol-C]	4.80	4.81	6.43	5.39	5.62			
O=C(c1ccccc1)c1ccc2n1CCC2C(=O)O (centres unmarked) [ketorolac, reference compound]							52%	26%

— article PMC6222853 (Molecules : A Journal of Synthetic Chemistry and Natural …, 2018)
